From US11648316B2, “Oral pharmaceutical composition containing pemetrexed and production method thereof” (ICURE BNP CO., LTD., priority 2017, dated 2023)
Read-outs that look alike come from different tables or passages of the source. Each block holds one molecule with its values, some of them ahead of it.

Assays:
[1] = rat, in vivo, iv, 5 mg/kg
Procedure: (§1) Separately, in order to evaluate oral bioavailability, a solution of pemetrexed in distilled water was injected in an amount of 200 μl into rats through the tail vein thereof. Blood samples (200 μl) were collected at scheduled times after individual drug administrations and immediately mixed with 50 μl of a sodium citrate (3.8%) solution. The collected blood samples were centrifuged at 2,500×g and 4° C. for 15 min, pemetrexed in plasma was extracted using a solid-phase extraction (SPE) cartridge, and the concentration of pemetrexed was measured through liquid chromatography/mass spectrometry (LC/MS).
(§2) Each value represents mean±standard deviation (n=4 in each group).

[2] = Artificial intestinal membrane permeability (PAMPA), Example 7; type: in vitro ADME; conditions: PBS pH 6.8, pemetrexed 200 μg/ml, room temperature, 5 hr
From the text: The intestinal membrane permeability of pemetrexed (PMX), the mixture of hydroxypropyl beta-cyclodextrin and pemetrexed (HP-beta CD/PMX), the mixture of hydroxypropyl beta-cyclodextrin and PMX/DCK ion-binding complex (HP-beta CD/PMX/DCK), the mixture of hydroxypropyl beta-cyclodextrin, PMX/DCK ion-binding complex and poloxamer (HP-beta CD/PMX/DCK/P188) prepared in Example 4, and the w/o/w nanoemulsion including the mixture of hydroxypropyl beta-cyclodextrin, PMX/DCK ion-binding complex and poloxamer (HP-beta CD/PMX/DCK/P188) prepared in Example 5 was evaluated using an artificial intestinal membrane (PAMPA; BD Biosciences, San Jose, Calif., USA).
Each sample was diluted with phosphate-buffered saline (PBS, pH 6.8) so that the concentration of pemetrexed was 200 μg/ml, and was then added in an amount of 200 μl to the donor compartment of each well of a PAMPA plate, each acceptor compartment thereof was added with 300 μl of phosphate-buffered saline (PBS, pH 6.8), and the donor compartment and the acceptor compartment were linked and then allowed to stand at room temperature for 5 hr, after which the sample was recovered from the donor compartment and the acceptor compartment of each well of the PAMPA plate and the concentration of the permeated drug was measured as follows. […]
The effective permeability (Pe) of each drug was calculated using the following equation. […]

[3] = in vivo; conditions: rat
Procedure: as §1, §2

[4] = In-vivo bioavailability of oral nanoemulsion in rats, Example 11; conditions: rat
[5] = test system: Caco-2 cell monolayer membrane; experiment: Intestinal cell membrane permeability, Caco-2 cell monolayer, Example 9; type: in vitro ADME; conditions: Caco-2 monolayer, apical to basolateral, pemetrexed 200 μg/ml in HBSS, 37° C., up to 5 hr
Procedure: Caco-2 cells were treated at 3×10^5 cells in each well of a 12-well Transwell (pore size: 0.4 μm, surface area: 1.12 cm^2; Corning, N.Y., USA). Dulbecco's modified Eagles medium (DMEM; Lonza, Basel, Switzerland) containing 10% fetal bovine serum (FBS; Gibco™, Thermo Fisher Scientific) and 1% penicillin/streptomycin (Gibco™) was replaced every 48 hr for 21 days to 29 days, and a Caco-2 cell membrane having a transepithelial electrical resistance (TEER) of 350 Ωcm^2 or more was used for in-vitro intestinal cell membrane permeability tests.
Specifically, the culture medium was removed, culture was performed at 37° C. for 20 min with 0.5 ml of a Hanks' balanced salt solution (HESS), HBSS was removed, and each sample was diluted with HBSS so that the concentration of pemetrexed was 200 μg/ml, after which each sample thus diluted was added in an amount of 0.5 ml to the apical compartment of the Transwell, and the basolateral compartment of the Transwell was added with 1.5 ml of HBSS, followed by culturing at 37° C. After sample treatment, 100 μl of the sample was collected from the basolateral compartment of each well at 0.5, 1, 2, 3, 4 and 5 hr and then filtered with a membrane filter, after which the concentrations of PMX and the PMX/DCK ion-binding complex that permeated the intestinal cell membrane were measured using the same HPLC system as in Example 7. […]

[6] = Artificial intestinal membrane permeability (PAMPA) of nanoemulsion with quercetin, Example 8; type: in vitro ADME; conditions: PBS pH 6.8, quercetin 400 μg/ml, room temperature, 5 hr, analyte quercetin
Procedure: The intestinal membrane permeability of pemetrexed (PMX), quercetin and the w/o/w secondary nanoemulsions including the mixture of hydroxypropyl beta-cyclodextrin, PMX/DCK ion-binding complex and poloxamer (HP-beta CD/PMX/DCK/P188) prepared in Example 5 and quercetin was evaluated using an artificial intestinal membrane (PAMPA; BD Biosciences, San Jose, Calif., USA).
Each sample was diluted with phosphate-buffered saline (PBS, pH 6.8) so that the concentration of pemetrexed was 200 μg/ml and the concentration of quercetin was 400 μg/ml, and was then added in an amount of 200 μl to the donor compartment of each well of a PAMPA plate, each acceptor compartment thereof was added with 300 μl of phosphate-buffered saline (PBS, pH 6.8), and the donor compartment and the acceptor compartment were linked and then allowed to stand at room temperature for 5 hr, after which the sample was recovered from the donor compartment and the acceptor compartment of each well of the PAMPA plate, and the concentration of the permeated drug was measured as follows.
The concentrations of PMX and PMX/DCK were analyzed by introducing 20 μl of the sample into an HPLC system with a C18 column (4.6×250 mm, 5 μm, 100 □) and allowing a mixture of purified water (pH 3.2, adjusted with phosphoric acid) and acetonitrile at 80:20 (v/v) as a mobile phase to flow at a flow rate of 1.0 ml/min. […]

- AUCinf [1]: 9,414.5 ± 4,223.6 ng · h/ml
- AUClast [1]: 9,377.5 ± 4,169.4 ng · h/ml
- Cmax [1]: 15,318 ± 6100.3 ng/ml
- T1/2 [1]: 21 ± 4.8 min
- Permeability (effective permeability Pe of pemetrexed) [2]: 3.73 ± 1.15 ×10^−6, cm/s
- bioavailability [3]: 1.49%
- bioavailability ([3]; iv, 5 mg/kg): 100%
- AUC(0-inf) ([3]; po, 50 mg/kg): 2560 ng·h/mL
- AUC(0-t) ([3]; po, 50 mg/kg): 1390 ng·h/mL
- Cmax ([3]; po, 50 mg/kg): 452 ± 221 ng/mL
- Tmax ([3]; po, 50 mg/kg): 49.8 ± 34.8 min
- half-life ([3]; po, 50 mg/kg): 364 ± 110 min
- Bioavailability (oral, compared to intravenous injection) [4]: 12.0%
- AUCinf ([4]; iv, 10 mg/kg): 29,390 ± 4,844 ng · h/ml
- AUClast ([4]; iv, 10 mg/kg): 31,340 ± 5,342 ng · h/ml
- Cmax ([4]; iv, 10 mg/kg): 32,220 ± 13,900 ng/ml
- T1/2 ([4]; iv, 10 mg/kg): 34.2 ± 4.2 min
- bioavailability ([4]; iv, 10 mg/kg): 100%
- AUCinf ([4]; po, 20 mg/kg): 14,300 ± 2,272 ng · h/ml
- AUClast ([4]; po, 20 mg/kg): 7,546±938 ng · h/ml
- Cmax ([4]; po, 20 mg/kg): 1,487±332 ng/ml
- Tmax ([4]; po, 20 mg/kg): 2.75 ± 3.50 h
- half-life ([4]; po, 20 mg/kg): 453 ± 56.4 min
- Permeability (apparent permeation coefficient Papp) [5]: 0.50 ± 0.09 ×10^−6, cm/s
Compound: Nc1nc2[nH]cc(CCc3ccc(C(=O)N[C@@H](CCC(=O)O)C(=O)O)cc3)c2c(=O)[nH]1 [PMX, Pemetrexed]

- Permeability (effective permeability Pe of quercetin) [6]: 4.51 ± 5.10 ×10^−6, cm/s
Compound: O=c1c(O)c(-c2ccc(O)c(O)c2)oc2cc(O)cc(O)c12 [Quercetin, quercetin]
